What was measured:
[1] = test system: gastric secretion induced by histamine; test: Anti-H2 activity, gastric secretion in rats in vivo induced by histamine; set-up: species or system rat; conditions: 50 mg/kg i.p.; for pH variation from the beginning of the treatment / Area: mean ± ES; for Area: control 184.93, *p ≤ 0.01, **p ≤ 0.01
Procedure: Anti-H2 activity. Gastric secretion in rats in vivo induced by histamine. The anti-secretory activity has been studied by the method by Gosh, M. N., Schild, M. O. [Brit. J. Pharmacol., 13, 54 (1958)]. | Antihistaminic anti-H2 activity, gastric secretion in rats, in vivo, | induced by histamine. | Histamine perfused into vein 200 μg/kg/min at the flow rate of 0.1 | ml/min. | Perfusion of stomach with 0.00025 N NaOH at the flow rate of 1 | ml/min.

H2-receptors = target: T1, H2-receptors (Rattus norvegicus, UniProt P25102); test: Antagonism to histamine in isolated uterus of female rat under estrus; conditions: for Relaxation with histamine 10^-2 g/l, after the administration / Relaxation with histamine 10^-2 g/l, Δ: basal value 11.5
T1 construct: functional antagonism of histamine-induced relaxation
T1 sequence (P25102 whole entry): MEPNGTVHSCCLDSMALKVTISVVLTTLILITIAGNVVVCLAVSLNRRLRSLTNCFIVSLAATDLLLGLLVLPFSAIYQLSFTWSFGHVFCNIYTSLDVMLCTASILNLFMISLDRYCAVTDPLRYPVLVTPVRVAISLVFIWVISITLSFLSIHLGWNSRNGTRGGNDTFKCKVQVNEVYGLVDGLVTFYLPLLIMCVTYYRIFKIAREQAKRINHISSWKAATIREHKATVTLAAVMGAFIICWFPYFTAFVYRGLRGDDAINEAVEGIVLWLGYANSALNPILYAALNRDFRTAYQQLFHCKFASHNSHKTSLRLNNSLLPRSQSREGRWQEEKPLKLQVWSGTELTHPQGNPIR

[2] = test system: indomethacin-induced ulcers; test: Anti-ulcer activity, indomethacin-induced ulcers in rat; format: in vivo; conditions: 25 mg/kg p.o.; for Inhibition percentage (ulcer): relative to control; for mm of ulcer: control 18.4
Text: This activity has been evaluated by using the method of indomethacin-induced ulcers in rat [Bhargava, K. P., Gupta M. B. and Tangri, K. K.: European J. of Pharmacology, 22, 191-195 (1973)].
The product has been administered as dissolved in carboxymethylcellulose at 0.2% and Tween 80 at 1% concentration.

[3] = Acute toxicity (LD50) in mouse, Lichtfield and Wilcoxon; conditions: in vivo, 14 days observation
Text: (§1) The characteristics of high activity and of practical absence of side effects have been evaluated by studying the acute toxicity, the activity on indomethacin-induced ulcers, on gastric secretion, on histamine-inducedgastric hyperacidity, and on H2 --receptors of isolated uterus of guinea pig.
(§2) The acute toxicity has been studied on male and female mice of Swiss strain, and on albino male and female rats of Wistar strain, by administering the active principle by the oral way, by intravenous way, and by intramuscular way.
(§3) For each administering way envisaged, doses in geometrical progression have been tested.
(§4) At the end of the observation time period of 14 days, the LD50 and the related fiducial limits have been computated according to the method by Licthfield and Wilcoxon [Pharmacol. Exp. Theor., 118, 96-99 (1949)].

[4] = Acute toxicity (LD50) in rat, Lichtfield and Wilcoxon; conditions: in vivo, 14 days observation, read-out: DL50
Text: as §1, §2, §3, §4

gastric secretion = test: Therapeutical activity, overall statement; conditions: in vivo
mice and rats = test: Acute toxicity, overall comparison (mouse and rat); format: in vivo; conditions: whole of the data of Table 1
Text: as §1, §2, §3, §4

[5] = im, intramuscular administering, read-out: DL50
[6] = intravenous administering, read-out: DL50
[7] = oral administering, read-out: DL50 (95 fiducial limits)
[8] = im, intramuscular administering

CNC(=C[N+](=O)[O-])NCCSCc1ccc(CN(C)C)o1 [Ranitidine, ranitidine]
pH variation from the beginning of the treatment ([1]; 0 min): 8.80 pH | % Δ (percent increase of area relatively to the control) [1]: 45.47% | Area [1]: 269.02 mm^2 | pH variation from the beginning of the treatment ([1]; 5 min): 6.12 pH | pH variation from the beginning of the treatment ([1]; 10 min): 4.06 pH | pH variation from the beginning of the treatment ([1]; 15 min): 4.06 pH | pH variation from the beginning of the treatment ([1]; 20 min): 4.28 pH | pH variation from the beginning of the treatment ([1]; 25 min): 4.48 pH | pH variation from the beginning of the treatment ([1]; 30 min): 4.67 pH | pH variation from the beginning of the treatment ([1]; 35 min): 4.89 pH | pH variation from the beginning of the treatment ([1]; 40 min): 5.16 pH | pH variation from the beginning of the treatment ([1]; 45 min): 5.33 pH | pH variation from the beginning of the treatment ([1]; 50 min): 5.40 pH | pH variation from the beginning of the treatment ([1]; 55 min): 5.57 pH | pH variation from the beginning of the treatment ([1]; 60 min): 5.69 pH | Relaxation with histamine 10^-2 g/l, after the administration (H2-receptors; 5 × 10^-3 g/l, N° 5): 3 | Relaxation with histamine 10^-2 g/l, Δ (H2-receptors; 5 × 10^-3 g/l, N° 5): 8.5 | inhibition at 5 µg/mL (H2-receptors; rat, read-out: Inhibition percentage (relaxation with histamine 10^-2 g/l)): 73.9% | Inhibition percentage (ulcer) [2]: 84.2 percentage | mm of ulcer [2]: 2.9 mm | LD50 at 336 h [3, 5]: 280 mg/kg | LD50 at 336 h [3, 6]: 80 mg/kg | LD50 at 336 h [3, 7]: 1700 mg/kg | LD50 at 336 h [4, 8]: 2020 mg/kg | LD50 at 336 h ([4]; intravenous administering): 93 mg/kg | LD50 at 336 h ([4]; oral administering): > 5000 mg/kg

CN(C)Cc1ccc(CSCCNC(=C[N+](=O)[O-])N2CCN(C)CC2)o1 [Methylpiperazino-ranitidine, 1-N-[2-[[5-[(dimethylamino)-methyl]-furfuryl]-thio]-ethyl]-amino-1-[4-methylpiperazino]-2-nitroethene]
pH variation from the beginning of the treatment ([1]; 0 min): 8.68 pH | % Δ (percent increase of area relatively to the control) [1]: 32.84% | action prolonged in time, pH value from the 35th to the 60th minute [1]: from the 35th to the 60th minute the pH value remains nearly constant | Area [1]: 245.67 mm^2 | pH variation from the beginning of the treatment ([1]; 5 min): 7.21 pH | pH variation from the beginning of the treatment ([1]; 10 min): 5.85 pH | pH variation from the beginning of the treatment ([1]; 15 min): 4.62 pH | pH variation from the beginning of the treatment ([1]; 20 min): 4.43 pH | pH variation from the beginning of the treatment ([1]; 25 min): 4.39 pH | pH variation from the beginning of the treatment ([1]; 30 min): 4.27 pH | pH variation from the beginning of the treatment ([1]; 35 min): 4.06 pH | pH variation from the beginning of the treatment ([1]; 40 min): 4.05 pH | pH variation from the beginning of the treatment ([1]; 45 min): 3.97 pH | pH variation from the beginning of the treatment ([1]; 50 min): 3.92 pH | pH variation from the beginning of the treatment ([1]; 55 min): 3.99 pH | pH variation from the beginning of the treatment ([1]; 60 min): 3.95 pH | therapeutical activity compared with ranitidine (gastric secretion): practically overlapping to that of ranitidine | Relaxation with histamine 10^-2 g/l, after the administration (H2-receptors; 6.75 × 10^-3 g/l, N° 5): 2.5 | Relaxation with histamine 10^-2 g/l, Δ (H2-receptors; 6.75 × 10^-3 g/l, N° 5): 9 | inhibition at 6.75 µg/mL (H2-receptors; rat, 6.75 × 10^-3 g/l, N° 5, read-out: Inhibition percentage (relaxation with histamine 10^-2 g/l)): 78.2% | anti-ulcer activity compared with ranitidine [2]: same anti-ulcer activity as ranitidine | Inhibition percentage (ulcer) [2]: 85.9 percentage | mm of ulcer [2]: 2.6 mm | toxicity compared with ranitidine (mice and rats): constantly results less toxic than ranitidine | LD50 at 336 h [3, 5]: 300 mg/kg | LD50 at 336 h [3, 6]: 120 mg/kg | LD50 at 336 h [3, 7]: 2610 mg/kg | LD50 at 336 h [4, 8]: 2000 mg/kg | LD50 at 336 h ([4]; intravenous administering): 110 mg/kg | LD50 at 336 h ([4]; oral administering): 5500 mg/kg

Reference: patent US4613602A, “Ranitidine derivative useful in the treatment of ulcer” (Magis Farmaceutici s.r.l., priority 1984, dated 1986)
